“Also recorded” adds a separate entry of the source.
Columns and labels:
[1] = system: sickle RBCs; assay: Kinetics of cell sickling and unsickling under transient hypoxia, patient samples on-HU vs off-HU; format: cell-based, human
Procedure: (§1) Cell sickling was measured using a double-layer device with a cell channel (5 μm high), a gas channel (100 μm high) and an in-between PDMS film 150 μm in thickness (FIG. 1A). The O2 concentration was controlled by exchanging gas flow in the channel through the PDMS membrane that is gas-permeable (33). […] Sickle RBCs typically form spiky edges and dark coarse texture due to intracellular HbS polymerization, the visual identification of which was enhanced by a band-pass filter (FIG. 1B). Thus the sickled cells were defined as those obviously distorted from their original shape and texture under Oxy state (O2 concentration 20%) to the DeOxy state (O2 concentration <5%). […] The delay time of cell unsickling was defined as the time elapsed between the initiation of reoxygenation (ReOxy) and the point when the RBC fully recovered its pre-sickle morphology in a visibly identifiable manner.
Kinetics of individual cell sickling and unsickling under transient hypoxia conditions was quantified by the delay time and the maximum sickled fraction on 25 SCD patient samples: 7 patients without HU therapy (off-HU) and 18 patients with HU therapy (on-HU) (see patient's HU status in Materials and Methods Text). Short-term and a long-term hypoxia conditions were created to simulate normal and retarded transit scenarios in microvasculature (FIGS. 2A-B). Representative cell sickling profiles upon changes in O2 concentration are shown (FIG. 2C). Compared to the relatively long sickling process (>100 s for sickled fraction rising from zero to a saturated, maximum level), the unsickling process after ReOxy was much faster (<20 s for sickled fraction reducing from the saturated level to zero), disregarding the small discrepancy in the DeOxy and ReOxy rates (<20 s). This observation applied to all patient sample.
(§2) For the Aes-103 testing, blood samples from 3 on-HU and 3 off-HU patients were incubated with Aes-103 at different concentrations (0.5, 1, 2, and 5 mM) for one hour at 37° C. before the in vitro sickling test. […] The fractionation gradient was built up with four layers of 2.5 ml Optiprep-DPBS medium of densities of 1.081, 1.091, 1.100 and 1.111 g/ml, respectively. 1 ml blood sample was washed twice with Phosphate Buffered Saline (PBS) at 2000 rpm for 5 minutes at 21° C. and diluted into 70-80% hematocrit. […] The four fractions, Density 1 through Density 4 have mean densities of 1.086±0.005 g/ml, 1.095±0.005 g/ml, 1.105±0.005 g/ml, and >1.111 g/ml, respectively. Fractionated sickle RBCs were then suspended with RPMI-1640 containing 1% w/v Bovine Serum Albumin (BSA) (Sigma-Aldrich, St Louis, Mo.) and stored at 4° C. until shortly before use to avoid metabolic depletion.

[2] = system: sickle RBCs; assay: Individual sickle RBC rheology through micro-gates under transient hypoxia, on-HU vs off-HU
[3] = system: sickle RBCs; assay: Kinetics of cell sickling of density-fractionated sickle RBC populations, on-HU vs off-HU; format: cell-based, human
From the text: In order to quantify the effects of cell density on the kinetics of cell sickling and unsickling, we categorized sickle RBCs into four populations with average cell densities of 1.086±0.005 g/ml (Density 1), 1.095±0.005 g/ml (Density 2), 1.105±0.005 g/ml (Density 3), and >1.111 g/ml (Density 4) for 20 SCD samples from 6 off-HU patients and 14 on-HU patients. The majority of sickle RBCs fell within Density 2 and Density 3 (FIG. 8A). We noticed a significant difference in sickling growth curve among different density populations of individual blood samples under both short-term and long-term DeOxy states (FIGS. 8B and C). Results of delay time of cell sickling and sickled fraction were examined along with cell density and the patient's HU status. Delay time of cell sickling decreased with cell density (FIG. 5A), which can be rationalized by the hydration state of the cells (39, 40).
as §2
(§3) As Ru(dpp)3C12 is water insoluble, it was dissolved in Acetone-RPMI (volume ratio of 1:2) at 0.8 mg/ml and injected into the cell channel. […] Short-term and long-term hypoxia conditions held the durations of DeOxy state (O2 concentration<5%) about 25 s and 220 s, respectively.

[4] = system: sickle RBCs; assay: Microfluidic hypoxia assay: anti-sickling effect of Aes-103 on sickle RBCs incubated in vitro; format: cell-based, human
Procedure: as §1, §2, §3

Compound | delay time of sickling, on-HU group compared with off-HU group ([1]; 5% sickled fraction, p<0.01) | delay time of cell sickling, six cases ([1]; 10% sickled fraction, six cases, suggesting beneficial effect of HU therapy) [s] | influence of HU therapy on delay time of cell sickling to saturated sickled fraction ([1]; long-term DeOxy state, p<0.02) | delay time of cell unsickling, on-HU vs off-HU ([1]; long-term DeOxy state, p=0.24) | maximum sickled fraction ([1]; short-term DeOxy state (O2 <5% for 25 s), all on-HU samples, significantly lower than off-HU (p=0.03)) | capillary obstruction ratio, on-HU vs off-HU ([2]; 7 on-HU and 7 off-HU patient samples, DeOxy state, p=0.04) | cell velocity, on-HU vs off-HU ([2]; individual RBCs through periodic micro-gates) | delay time for unsickling, on-HU vs off-HU ([3]; Densities 1 through 3, long-term DeOxy) | delay time of cell sickling with HU therapy, Densities 3 and 4 ([3]; Densities 3 and 4, p=0.01 and p=0.06) | mean delay time of cell sickling, on-HU vs off-HU cases ([3]; density-fractionated populations, short-term DeOxy, p<0.02) | sickled fraction with HU therapy ([3]; short-term hypoxia, particularly Densities 3 and 4 (p=0.01 and p=0.001)) | change in cell sickling from baseline ([4]; 2 mM Aes-103 incubation, each patient sample) | maximum sickled fraction ([4]; 5 mM Aes-103, one hour at 37° C., hypoxia 2% O2, 3 on-HU and 3 off-HU patient samples) [%] | sickled fraction of one patient sample ([4]; 5 mM Aes-103, one patient sample) | dependence of sickled fraction on Aes-103 concentration (anti-sickling effect) ([4]; Aes-103 0.5-5 mM, long-term hypoxia)
NC(=O)NO [HU, hydroxyurea] | significantly longer | > 60 | statistically significant | no significant difference | below 15% | significantly lower | lower than those for the off-HU group | did not vary significantly | marked extension | statistically higher | significantly suppressed | – | – | – | –
O=Cc1ccc(CO)o1 [Aes-103, 5-hydroxymethylfurfural] | – | – | – | – | – | – | – | – | – | – | – | significant decrease in cell sickling from its baseline | < 5 | nearly zero | strong correlation with the drug concentration; also recorded: decreased with drug concentration; also recorded: dosage-dependent manner
